Results taken from publication PMC5011342, “A high throughput drug screening assay to identify compounds that promote oligodendrocyte differentiation using acutely dissociated and purified oligodendrocyte precursor cells” (BMC Research Notes, 2016).
Like-named read-outs stand apart in the source and are kept apart here.

What was measured:
expanded OPCs = experiment: cells; details: for 0.1 µM (% DMSO) / 1 µM (% DMSO) / 10 µM (% DMSO): alamarBlue viability of expanded OPCs, relative to DMSO control; for 0.1 µM (% DMSO): compound at 0.1 µM; for 1 µM (% DMSO): compound at 1 µM; for 10 µM (% DMSO): compound at 10 µM; for viability at 0.1 µM / viability at 1 µM / viability at 10 µM: Rattus norvegicus, 72 h
Outline: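 Expanded OPCs seeded at 10,000 cells/well in differentiation media, then exposed to NCC library compounds at 10, 1 and 0.1 µM (quadruplicate, 0.1% DMSO) for three days. Viability read as alamarBlue fluorescence (560/590 nm) after 4 h at 37 °C; tunicamycin 5 ng/ml served as toxicity control.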

[1] = test system: acutely dissociated and purified rat OPCs; experiment: Acute OL differentiation assay (MBP expression/cell, immunofluorescent image quantification); format: cell-based; details: Rattus norvegicus
Outline: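 Oligodendrocyte precursor cells were enriched from P6-P7 Sprague–Dawley rat brains by immunopanning (RAN-2 and GalC depletion, O4 selection), plated at 5000 cells/well in serum-free, mitogen-free differentiation media on PDL/laminin 96-well view plates, centrifuged at 200×g, and pre-incubated 1–2 h before test compounds were added in quadruplicate. On DIV4, cells were fixed, stained for MBP and DAPI, imaged automatically, and MBP expression per cell was quantified.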

[2] = test compound at 2 uM, MBP expression relative to quetiapine, NCC library screen, sheet "All OLga data", read-out: 2 uM (% Quet)
[3] = test compound at 10 uM, MBP expression relative to quetiapine, NCC library screen, sheet "All OLga data", read-out: 10 uM (% Quet)
[4] = test compound at 2 uM, NCC library screen, sheet "All OLga data", relative to quetiapine, read-out: 2 uM (% Quet)
[5] = test compound at 10 uM, NCC library screen, sheet "All OLga data", relative to quetiapine, read-out: 10 uM (% Quet)
[6] = read-out: 0.1 µM (% DMSO), alamarBlue viability of expanded OPCs, compound at 0.1 µM, sheet All Tox data
[7] = read-out: 1 µM (% DMSO), alamarBlue viability of expanded OPCs, compound at 1 µM, sheet All Tox data
[8] = read-out: 10 µM (% DMSO), alamarBlue viability of expanded OPCs, compound at 10 µM, sheet All Tox data
[9] = 2 uM test compound, relative to quetiapine, sheet "All OLga data", read-out: OL differentiation, 2 uM (% Quet)
[10] = 10 uM test compound, relative to quetiapine, sheet "All OLga data", read-out: OL differentiation, 10 uM (% Quet)
[11] = read-out: 0.1 µM (% DMSO), alamarBlue viability, NCC library compound at 0.1 µM, sheet "All Tox data"
[12] = read-out: 1 µM (% DMSO), alamarBlue viability, NCC library compound at 1 µM, sheet "All Tox data"
[13] = read-out: 10 µM (% DMSO), alamarBlue viability, NCC library compound at 10 µM, sheet "All Tox data"

| SMILES | 0.1 µM (% DMSO) (expanded OPCs) | 1 µM (% DMSO) (expanded OPCs) | 10 µM (% DMSO) (expanded OPCs) | activation at 2 µM [1, 2] | activation at 10 µM [1, 3] | activation at 2 µM [1, 4] | activation at 10 µM [1, 5] | viability at 0.1 µM (expanded OPCs; [6]) | viability at 1 µM (expanded OPCs; [7]) | viability at 10 µM (expanded OPCs; [8]) | activation at 2 µM [1, 9] | further results |
| --- | --- | --- | --- | --- | --- | --- | --- | --- | --- | --- | --- | --- |
| CO/N=C(\C(=O)N[C@@H]1C(=O)N2C(C(=O)O)=C(COC(C)=O)CS[C@H]12)c1csc(N)n1 [Cefotaxime] | 97.0 % DMSO | 88.3 % DMSO | 82.3 % DMSO | 9.9% | 8.5% |  |  |  |  |  |  |  |
| CO[C@@]1(NC(=O)Cc2cccs2)C(=O)N2C(C(=O)O)=C(COC(N)=O)CS[C@@H]21 [Cefoxitin] | 88.0 % DMSO | 88.0 % DMSO | 85.5 % DMSO |  |  | 4.1% | 0.14% |  |  |  |  |  |
| COCC1=C(C(=O)OC(C)OC(=O)OC(C)C)N2C(=O)[C@@H](NC(=O)/C(=N\OC)c3csc(N)n3)[C@H]2SC1 (some centres unmarked) [Cefpodoxime proxetil] |  |  |  |  |  |  |  | 96.9% | 90.7% | 98% | -7.7% | activation at 10 µM [1, 10]: -20.6% |
| CO/N=C(\C(=O)N[C@@H]1C(=O)N2C(C(=O)O)=C(COC(N)=O)CS[C@H]12)c1ccco1 [Cefuroxime] | 91.1 % DMSO | 94.9 % DMSO | 91.5 % DMSO | 13.5% | 13.9% |  |  |  |  |  |  |  |
| Cc1ccc(-c2cc(C(F)(F)F)nn2-c2ccc(S(N)(=O)=O)cc2)cc1 [Celecoxib] | 94.3 % DMSO | 89.6 % DMSO | 87.2 % DMSO | 14.8% | 9% |  |  |  |  |  |  |  |
| CC1=C(C(=O)O)N2C(=O)[C@@H](NC(=O)[C@H](N)c3ccccc3)[C@H]2SC1 [Cephalexin] |  |  |  |  |  |  |  | 103% | 110% | 112% | -1.3% | activation at 10 µM [1, 10]: -4.5% |
| COCc1c(C(C)C)nc(C(C)C)c(/C=C/[C@@H](O)C[C@@H](O)CC(=O)O)c1-c1ccc(F)cc1 [Cerivastatin] |  |  |  |  |  |  |  | 97.3% | 52.3% | 11.5% | -191% | activation at 0.4 µM ([1]; 0.4 uM test compound, relative to quetiapine, sheet "All OLga data", read-out: OL differentiation, 0.4 uM (% Quet)): -38.8% |
| O=C(O)COCCN1CCN(C(c2ccccc2)c2ccc(Cl)cc2)CC1 (centres unmarked) [Cetirizine] |  |  |  |  |  | 9.7% | 9.5% |  |  |  |  | viability at 0.1 µM (expanded OPCs; [11]): 92.3%; viability at 1 µM (expanded OPCs; [12]): 89.3%; viability at 10 µM (expanded OPCs; [13]): 87.4% |
| NC[C@H]1CC[C@H](C(=O)Oc2ccc(CCC(=O)O)cc2)CC1 [Cetraxate] |  |  |  |  |  |  |  | 103% | 92.1% | 104% | -6.2% | activation at 10 µM [1, 10]: -5.4% |
| C[C@H](CCC(=O)O)[C@H]1CC[C@H]2[C@@H]3[C@H](O)C[C@@H]4C[C@H](O)CC[C@]4(C)[C@H]3CC[C@]12C [Chenodeoxycholic Acid] | 111.3 % DMSO | 107.5 % DMSO | 110.8 % DMSO |  |  | -24.3% | -7.9% |  |  |  |  |  |
| O=C(O)CCCc1ccc(N(CCCl)CCCl)cc1 [Chlorambucil] |  |  |  |  |  |  |  |  |  |  |  | viability at 0.1 µM (expanded OPCs; read-out: 0.1 µM (% DMSO)): 88%; viability at 1 µM (expanded OPCs; read-out: 1 µM (% DMSO)): 80.8%; viability at 10 µM (expanded OPCs; read-out: 10 µM (% DMSO)): 57.4%; activation at 2 µM ([1]; read-out: 2 uM (% Quet)): -18.6%; activation at 10 µM ([1]; read-out: 10 uM (% Quet)): -105% |
| O=C(N[C@H](CO)[C@H](O)c1ccc([N+](=O)[O-])cc1)C(Cl)Cl [Chloramphenicol] | 87.1 % DMSO | 93.2 % DMSO | 90.9 % DMSO | 9.3% | 1.1% |  |  |  |  |  |  |  |
| CNC1=Nc2ccc(Cl)cc2C(c2ccccc2)=[N+]([O-])C1 [Chlordiazepoxide] |  |  |  |  |  | -0.9% | 23.8% |  |  |  |  | viability at 0.1 µM (expanded OPCs; [11]): 91.2%; viability at 1 µM (expanded OPCs; [12]): 93.8%; viability at 10 µM (expanded OPCs; [13]): 90.6% |
